# According to US20090312377A1, “DERIVATIVES OF BENZO[D]ISOTHIAZOLES AS HISTONES DEACETYLASE INHIBITORS” (UNIVERSIDAD DE GRANADA, priority 2006, published 2009):
# pIC50: −log10 of the molar value.
# Tested on: HDAC (HeLa nuclear extract, rich in HDAC activity)
# Test: HDAC AK-501 colorimetric (Color de Lys) inhibition assay with HeLa nuclear extract
# Format: biochemical, human
# Settings: Color de Lys substrate 0.2 mM final, 20 minutes at 37° C., reading at 405 nm, from straight line of 5 concentrations
# Procedure: The inhibitory activity of the compounds obtained in the previous Examples 1, 2, 3 and 5 was evaluated, for which the HDAC AK-501 colorimetric titration kit for inhibition, supplied by Biomol, was used, following the indicated protocol.
# The process of the assay was carried out in two steps. In the first step, the Color de Lys® substrate, containing an acetylated lysine group, was incubated with a sample of HeLa (human cervical cancer cell line) nuclear extract, rich in HDAC activity. In the second step, the previous mixture was treated with the Color de Lys® developer, which caused an increase in the quantifiable color intensity at 405 nm. There is a linear correlation between the absorption and the deacetylation of lysine within instrumental limits. The addition of an HDAC inhibitor gives rise to a lower deacetylation of the Color de Lys® substrate and to a decrease in the intensity at 405 nm.
# The operating procedure was the following: • 1. The buffer, diluted (250 nM) TSA (Trichostatin A) and the inhibitor to be assayed were added at the desired concentrations in the suitable wells of the plate (See Table below). • 2. The Hela extract was added, except to the enzyme-free control. • 3. The plate and the Color de Lys® substrate were thermostatted at 37° C. • 4. The reactions were started adding the 0.4 mM substrate (final concentration of the substrate 0.2 mM) in each well and it was stirred. • 5. A reaction time of 20 minutes at 37° C. was allowed. • 6. The Color de Lys® developer, prepared approximately 30 minutes before its use, was added (the developer was used diluted 20 times with an amount of TSA resulting in a final concentration of 1 μM in the assay). It was allowed to react for 15 minutes at 37° C. • 7. The reading was made at 405 nm.
# (×5) and (×2) indicate the dilution factors.
# The result of the reading using 5 different concentrations taken between 0.1-2.0 mM of each inhibitor allowed obtaining a straight line of concentrations versus enzymatic activity. The concentration necessary to deduce the 50% enzymatic activity (IC50) was calculated from the equation of said line.
row,pIC50,Compound
1,5.94,"O=C(NO)c1ccc(CN2C(=O)c3ccccc3S2(=O)=O)cc1 [Compound 3, 4-[(1,1-dioxide-3-oxo-2H-benzo[d]isothiazol-2-yl)methyl]-N-hydroxybenzamide]"
2,5.82,"O=C(CCCCCN1C(=O)c2ccccc2S1(=O)=O)NO [Compound 1, 6-(1,1-dioxide-3-oxo-2H-benzo[d]isothiazol-2-yl)-N-hydroxyhexanamide]"
3,6.60,"O=C(CCCCCCN1C(=O)c2ccccc2S1(=O)=O)NO [Compound 2, 7-(1,1-dioxide-3-oxo-2H-benzo[d]isothiazol-2-yl)-N-hydroxyheptanamide]"
4,6.68,"O=C(CCCCCOc1nsc2ccccc12)NO [Compound 5, 6-[(benzo[d]isothiazol-3-yl)oxa]-N-hydroxyhexanamide]"
